The values that follow come from patent US6410566B1, “Cyclic amine derivatives and their use as drugs” (Teijin Limited, priority 2000, dated 2002).

The term inhibition denotes how much of the control response was suppressed.

One assay has as its target T1, binding of human MCP-1 to THP-1 cells (Homo sapiens, UniProt P41597).
T1 construct: endogenous in cells; host or cells: THP-1 (human monocytic leukemia cell line), whole cells
T1 sequence (P41597 1-360 isoform P41597-2): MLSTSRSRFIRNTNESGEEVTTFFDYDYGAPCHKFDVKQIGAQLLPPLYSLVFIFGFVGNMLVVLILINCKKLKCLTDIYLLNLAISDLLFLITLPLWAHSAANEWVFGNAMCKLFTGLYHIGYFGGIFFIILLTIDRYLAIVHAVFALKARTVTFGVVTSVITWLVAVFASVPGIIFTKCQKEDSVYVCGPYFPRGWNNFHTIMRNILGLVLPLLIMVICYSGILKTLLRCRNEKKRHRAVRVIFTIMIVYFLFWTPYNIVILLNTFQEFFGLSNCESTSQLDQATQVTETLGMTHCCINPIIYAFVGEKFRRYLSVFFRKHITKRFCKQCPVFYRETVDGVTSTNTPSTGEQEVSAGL
The assay can be described thus: Inhibition of binding of [125I]-labeled baculovirus expressed human MCP-1 to THP-1 cells (Method 2). The conditions noted are these: Method 2, at 1 μM. An excerpt:
1. Construction of recombinant baculovirus carrying the human MCP-1 gene
Based on the previously published human MCP-1 gene sequence (for example T. Yoshirnura et al., FEBS Lett., 1989, 244, 487-493), two synthetic DNA primers (5′-[…]-3′ and 5′-[…]-3′) flanked by restriction enzyme sites were used to amplify a DNA fragment from cDNA derived from human endothelial cells (purchased from Kurabow Co.); the amplified fragment was cut with the restriction enzymes (PstI and XbaI), ligated into a transfer vector pVL1393 (Invitrogen Co.), and the resulting vector was co-transfected along with infectious baculovirus into Sf-9 insect cells and the supernatant was plaque assayed to yield human MCP-1 gene baculovirus recombinant.
2. Synthesis of [^125I]-labeled human MCP-1 expressed in baculovirus
Using the method of K. Ishii et al. (Biochem Biophys Research Communications, 1995, 206, 955-961), 5×10^6 Sf-6 insect cells was infected with 5×10^7 PFU (plaque forming units) of the above human MCP-1 recombinant baculovirus and cultured for 7 days in Ex-Cell 401 medium. The culture supernatant was affinity purified using a heparin Sepharose column (Pharmacia Co.) and then further purified using reverse phase HPLC (Vydac C18 column) to prepare purified human MCP-1. The purified human MCP-1 was protein labeled by Amersham Co. using the Bolton Hunter method to yield [^125I]-labeled baculovirus expressed human MCP-1 (specific activity 2000 Ci/mmol).
3-2. Measurement of inhibition of binding of [^125I]-labeled baculovirus expressed human MCP-1 to THP-1 cells (Method 2)
Human monocytic leukemia cell line THP-1 was suspended in assay buffer (50 mM HEPES, pH 7.4, 1.0 mM CaCl2, 5.0% mM MgCl2, 0.5% BSA) to give a cell suspension of a concentration of 1×10^7 cells/mL. The test compound was diluted in the assay buffer and used as the test compound solution. [^125I]-labeled human MCP-1 described above was diluted in assay buffer to 1 mCi/mL and used as the labeled ligand solution. In a 96 well filter plate (Millipore Co.), 25 μL of test compound solution, 25 μL of labeled ligand solution and 50 μL of cell suspension were aliquoted into each well in this order, stirred (total reaction volume 100 μL), and incubated for one hour at 18° C.
After the reaction, the reaction solution was filtered, and the filter was washed twice with 200 μL of cold PBS (200 μL of cold PBS was added and then filtered). The filter was air-dried and 25 μL of liquid scintillator was added into each well. The radioactivity retained by the cells on the filter were measured using TopCount (Packard Instrument Co.).
To calculate the ability of test compound to inhibit binding of human MCP-1 to THP-1 cells, non-specific binding determined by adding 100 ng of unlabeled human MCP-1 in place of the test compound was subtracted, while the counts with no test compound added was taken as 100%.
Inhibition (%)={1−(A−B)/(C−B)}×100
(A, counts with test compound added; B, counts with 100 ng of unlabeled human MCP-1 added; C, counts with [^125I]-labeled human MCP-1 added).
As for `Cc1ccc(C(=O)NCC(=O)N[C@@H]2CCN(Cc3ccc(Cl)cc3)C2)cc1Br` [Compound No. 1098, (R)-1-(4-Chlorobenzyl)-3-[{N-(3-bromo-4-methylbenzoyl)glycyl}amino]pyrrolidine], the inhibition at 1 µM fell in the range of 20 to 50%. With `CCOc1ccc(CN2CCC(CNC(=O)CNC(=O)c3cc(Cl)ccc3N)CC2)cc1` [Compound No. 1429, 4-[{-(2-Amino-5-chlorobenzoyl)glycyl}aminomethyl]-1-(4-ethoxybenzyl)piperidine], the inhibition at 1 µM lay in the range of 20 to 50%. In turn, `O=C(CNC(=O)c1cccc(C(F)(F)F)c1)NCC1CCN(Cc2ccc(Cl)cc2)C1` (centres unmarked) [Compound No. 1463, 3-[{N-(3-Trifluoromethylbenzoyl)glycyl}aminomethyl]-1-(4-chlorobenzyl)pyrrolidine] showed an inhibition at 1 µM of 20 to 50%. Still for that read-out and setting: with `Nc1cc(F)c(F)cc1C(=O)NCC(=O)NCC1CCN(Cc2ccc(Cl)cc2)C1` (centres unmarked) [Compound No. 1506, 3-[{N-(2-Amino-4,5-difluorobenzoyl)glycyl}aminomethyl]-1-(4-chlorobenzyl)pyrrolidine] the figure was 50 to 80%; with `CS(=O)(=O)Nc1ccc(Br)cc1C(=O)NCC(=O)NCC1CCN(Cc2ccc(Cl)cc2)CC1` [Compound No. 1581, 4-[{N-(5-Bromo-2-(methylsulfonylamino)benzoyl)glycyl}aminomethyl]-1-(4-chlorobenzyl)piperidine], 20 to 50%. On to `CS(=O)(=O)N(c1ccc(Br)cc1C(=O)NCC(=O)NCC1CCN(Cc2ccc(Cl)cc2)CC1)S(C)(=O)=O` [Compound No. 1582, 4-[{N-(5-Bromo-2-(bis(methylsulfonyl)amino)benzoyl)glycyl}aminomethyl]-1-(4-chlorobenzyl)piperidine], for which the inhibition at 1 µM lay within 20 to 50%.

Regarding `Nc1ccc(Cl)cc1C(=O)NCC(=O)NCC1CCN(Cc2ccc(SC(F)(F)F)cc2)CC1` [Compound No. 1616, 4-[{N-(2-Amino-5-chlorobenzoyl)glycyl}aminomethyl]-1-{4-(trifluoromethylthio)benzyl}piperidine], the inhibition at 1 µM was in the range of 20 to 50%.

`CC(C)c1ccc(CN2CCC(CNC(=O)CNC(=O)c3cc(OC(F)(F)F)ccc3N)CC2)cc1` [Compound No. 1903, 4-[{N-(2-Amino-5-trifluoromethoxybenzoyl)glycyl}aminomethyl]-1-(4-isopropylbenzyl)piperidine] had an inhibition at 1 µM of 50 to 80%. The same measure, in the same setting: with `Nc1ccc(OC(F)(F)F)cc1C(=O)NCC(=O)N[C@@H]1CCN(Cc2ccc(Cl)cc2Cl)C1` [Compound No. 1905, (R)-3-[{N-(2-Amino-5-(trifluoromethoxy)benzoyl)glycyl}amino]-1-(2,4-dichlorobenzyl)pyrrolidine] the figure was 50 to 80%; with `Nc1ccc(OC(F)(F)F)cc1C(=O)NCC(=O)NCC1CCN(Cc2ccc(Br)cc2)CC1` [Compound No. 1910, 4-[{N-(2-Amino-5-trifluoromethoxybenzoyl)glycyl}aminomethyl]-1-(4-bromobenzyl)piperidine], 50 to 80%. Still for that read-out and setting: next, `CCOc1ccc(CN2CCC(CNC(=O)CNC(=O)c3cc(F)c(F)cc3N)CC2)cc1OCC` [Compound No. 2065, 4-[{N-(2-amino-4,5-difluorobenzoyl)glycyl}aminomethyl]-1-(3,4-diethoxybenzyl)piperidine]: 20 to 50%; `COc1ccc(CN2CCC(CNC(=O)CNC(=O)c3cc(F)c(F)cc3N)CC2)cc1N` [Compound No. 2113, 4-[{N-(2-amino-4,5-difluorobenzoyl)glycyl}aminomethyl]-1-(3-amino-4-methoxybenzyl)piperidine]: greater than 80%; `Nc1ccc(C(F)(F)F)cc1C(=O)NCC(=O)N[C@@H]1CCN(Cc2ccc(Br)cc2F)C1` [Compound No. 2120, (R)-3-[{N-(2-Amino-5-trifluoromethylbenzoyl)glycyl}amino]-1-(4-bromo-2-fluorobenzyl)pyrrolidine]: greater than 80%. Same read-out and setting: with `Nc1cc2c(cc1CN1CC[C@@H](NC(=O)CNC(=O)c3cc(C(F)(F)F)ccc3N)C1)OCO2` [Compound No. 2127, (R)-1-(2-Amino-4,5-methylenedioxybenzyl)-3-[{N-(2-amino-5-trifluoromethylbenzoyl)glycyl}amino]pyrrolidine] the figure was greater than 80%; with `CN(C)c1cc(CN2CC[C@@H](NC(=O)CNC(=O)c3cc(C(F)(F)F)ccc3N)C2)ccc1Cl` [Compound No. 2133, (R)-3-[{N-(2-Amino-5-trifluoromethylbenzoyl)glycyl}amino]-1-{4-chloro-3-(dimethylamino)benzyl}pyrrolidine], greater than 80%; with `Nc1cc(CN2CC[C@@H](NC(=O)CNC(=O)c3cc(C(F)(F)F)ccc3N)C2)ccc1O` [Compound No. 2187, (R)-1-(3-Amino-4-hydroxybenzyl)3-[{N-(2Amino-5-trifluoromethylbenzoyl)glycyl}amino]pyrrolidine], greater than 80%.

The target in the next assay is T1, binding of human MCP-1 to THP-1 cells. The assay can be described thus: Inhibition of binding of [125I]-labeled baculovirus expressed human MCP-1 to THP-1 cells (Method 1). To be noted: Method 1, at 10 μM. An excerpt: Measurement of Inhibition of MCP-1 Binding to THP-1 Cells 1. Construction of recombinant baculovirus carrying the human MCP-1 gene Based on the previously published human MCP-1 gene sequence (for example T. Yoshirnura et al., FEBS Lett., 1989, 244, 487-493), two synthetic DNA primers ([NT] and [NT]) flanked by restriction enzyme sites were used to amplify a DNA fragment from cDNA derived from human endothelial cells (purchased from Kurabow Co.); the amplified fragment was cut with the restriction enzymes (PstI and XbaI), ligated into a transfer vector pVL1393 (Invitrogen Co.), and the resulting vector was co-transfected along with infectious baculovirus into Sf-9 insect cells and the supernatant was plaque assayed to yield human MCP-1 gene baculovirus recombinant. […] Using the method of K. Ishii et al. […] The culture supernatant was affinity purified using a heparin Sepharose column (Pharmacia Co.) and then further purified using reverse phase HPLC (Vydac C18 column) to prepare purified human MCP-1. […] 3-1. […] The test. compound was diluted in the assay buffer and used as the test compound solution. [^125I]-labeled human MCP-1 described above was diluted in assay buffer to 1 mCi/mL and used as the labeled ligand solution. In a 96 well filter plate (Millipore Co.), 25 μL of test compound solution, 25 μL of labeled ligand solution and 50 μL of cell suspension were aliquoted into each well in this order, stirred (total reaction volume 100 μL), and incubated for one hour at 18° C. After the reaction, the reaction solution was filtered, and the filter was washed twice with 200 μL of cold PBS (200 μL of cold PBS was added and then filtered). The filter was air-dried and 25 μL of liquid sciatillator was added into each well. The radioactivity retained by the cells on the filter were measured using TopCount (Packard Instrument Co.). To calculate the ability of test compound to inhibit binding of human MCP-1 to THP-1 cells, non-specific binding determined by adding 100 ng of unlabeled human MCP-1 in place of the test compound was subtracted, while the counts with no test compound added was taken as 100%. Inhibition (%)=(1-(A-B)/(C-B))×100 (A, counts with test compound added; B, counts with 100 ng of unlabeled human MCP-1 added; C, counts with [^125I]-labeled human MCP-1 added).
In turn, `O=C(CNC(=O)c1cccc(C(F)(F)F)c1)N[C@H]1CCN(Cc2ccccc2)C1` [Compound No. 239, (S)-1-Benzyl-3-[N-{3-(trifluoromethyl)benzoyl}glycyl]aminopyrrolidine] came in with an inhibition at 10 µM of 20 to 50%. Same read-out and setting: with `O=C(CNC(=O)c1ccccc1)NCC1CCCN(Cc2ccc(Cl)cc2)C1` (centres unmarked) [Compound No. 434, 3-{(N-Benzoylglycyl)amino}methyl-1-(4-chlorobenzyl)piperidine] the figure was 50 to 80%. Same read-out and setting: with `Nc1ccc(CN2CCC(CNC(=O)CNC(=O)c3cccc(C(F)(F)F)c3)CC2)cc1` [Compound No. 516, 1-(4-Aminobenzyl)-4-[{N-(3-(trifluoromethyl)benzoyl)glycyl}aminomethyl]piperidine] the figure was 20 to 50%.

The same assay, now with this note: Method 1, at 100 μM.
Take `Cc1cccc(C(=O)NCC(=O)NC2CCCN(Cc3ccc(Cl)cc3)C2)c1` (centres unmarked) [Compound No. 355, 1-(4-Chlorobenzyl)-3-[{N-(3-methylbenzoyl)glycyl}amino]piperidine]: the inhibition at 100 µM was greater than 80%.
